These results are taken from US20080072337A1, “Braf Expression in Zebrafish and Uses Thereof” (Children's Medical Center Corporation, priority 2004, published 2008).

For this data set, the system named is zebrafish. The data set can be described thus: Examination of DMBA treated zebrafish for melanoma. The class given is in vivo. The note with it: over 10,000 DMBA treated zebrafish examined; unpublished data of the applicants.

SMILES strings stand for the structures.

As to `Cc1c2ccccc2c(C)c2c1ccc1ccccc12` [DMBA], the “melanoma identified in treated zebrafish” value is given as “failed to identify a single melanoma”.
